Source: PMC3269340, “Pharmacokinetics of memantine in rats and mice” (PLoS Currents, 2012)
Read-outs that look alike come from different tables or passages of the source.

Tests used:
[1] = cited from earlier work
human PEPT2 = molecular target: T1, human PEPT2 (Homo sapiens, UniProt Q16348); assay: Indirect uptake transporter assay, PEPT2; format: in vitro ADME
T1 construct: expressed in transfected cells; host or cells: CHO cells
T1 sequence (Q16348 1-729): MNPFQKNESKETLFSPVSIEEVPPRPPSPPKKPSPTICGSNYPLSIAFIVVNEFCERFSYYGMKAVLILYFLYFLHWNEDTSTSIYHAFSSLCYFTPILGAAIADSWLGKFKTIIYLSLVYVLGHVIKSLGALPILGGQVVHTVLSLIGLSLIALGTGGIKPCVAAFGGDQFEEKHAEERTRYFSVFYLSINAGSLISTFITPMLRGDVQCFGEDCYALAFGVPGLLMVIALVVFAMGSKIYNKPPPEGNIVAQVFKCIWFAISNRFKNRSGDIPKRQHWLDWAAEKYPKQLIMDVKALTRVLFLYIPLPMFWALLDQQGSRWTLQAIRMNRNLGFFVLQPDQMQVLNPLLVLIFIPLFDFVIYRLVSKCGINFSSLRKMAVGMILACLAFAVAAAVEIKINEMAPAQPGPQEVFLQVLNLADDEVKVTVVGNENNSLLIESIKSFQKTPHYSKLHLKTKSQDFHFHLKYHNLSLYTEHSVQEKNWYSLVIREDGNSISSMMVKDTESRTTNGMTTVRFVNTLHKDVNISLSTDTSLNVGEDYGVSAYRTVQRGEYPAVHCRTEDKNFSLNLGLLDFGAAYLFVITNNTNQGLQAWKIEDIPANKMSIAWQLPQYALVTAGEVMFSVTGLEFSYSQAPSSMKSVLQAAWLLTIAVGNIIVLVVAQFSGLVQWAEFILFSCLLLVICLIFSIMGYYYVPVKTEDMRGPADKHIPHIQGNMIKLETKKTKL
Text: To determine whether memantine is an inhibitor of the human OATP2B1 (OATP-B), OCT1, OCT2, OAT3, PEPT1, PEPT2 uptake transporters. The standard uptake transporter assay is an indirect, inhibitory-type screening assay, performed with cold test article, which in this case was memantine. It provides information on any interaction (substrate or inhibitor) between selected uptake transporters and memantine that would affect the transport of the reporter compound. […] A radiolabeled reporter substrate is transported into the cells transfected with the selected human uptake transporter, and the inhibitory effect of memantine on the transport of this reporter substrate is measured. Values are presented on a relative scale; 100% defined as transport in the presence of the solvent and without memantine (no inhibition), and 0% defined as transport detected without transporter activity. IC50 is defined as the concentration required to inhibit the transport of the reporter substrate by 50%. […]
After the experiment cells were rinsed with 2 x 100µl of Krebs-Henseleit buffer and lysed with 50 µl of 0.1M NaOH. ^3H-estrone-3-sulfate, ^14C-TEA, ^14C-metformin and ^3H-Gly-Sar transport was determined by total radioactivity by transferring an aliquot (35µl) from each well to a vial containing liquid scintillant for analysis.

SMILES: CC12CC3CC(C)(C1)CC(N)(C3)C2 [memantine]
- Cmax ([1]; human plasma/serum, 10 mg twice daily po, normal renal clearance): 83.5 ng/mL
- Cmax ([1]; human plasma/serum, 10 mg twice daily, read-out: Cmax): 470 nM
- Cmax ([1]; human, 10 mg BID po, read-out: Cmax): 470 nM
- C min ([1]; human, 10 mg BID): 300 nM
- Cmax/Cmin ratio at steady state ([1]; human, 10 mg BID): 1.54
- renal clearance as share of total systemic clearance ([1]; human, acidic conditions): 92%
- renal clearance as share of total systemic clearance ([1]; human, alkaline conditions): 60-67%
- Total plasma clearance (Clp) ([1]; human, normal renal function): 182 mL/min
- renal clearance (Clr) ([1]; human, normal renal function): 164 mL/min
- share of total plasma clearance accounted for by renal clearance ([1]; human, normal renal function): 90%
- Tmax ([1]; human, po): 4 to 6 h
- dose eliminated as intact memantine in the urine ([1]; human): 75-90%
- elimination half-life ([1]; human): 60 to 80 h
- volume of distribution at steady state (Vdss) ([1]; human): 9 to 11 L/kg
- IC50 (human PEPT2; PEPT2, probe printed in Table 5: E3S (0.3µM), methods and text: Gly-Sar): ND (Not Determined (< 50% inhibition))
- inhibition at 300 µM (human PEPT2; at 300 µM, read-out: inhibition of PEPT2-mediated glycylsarcosine transport): 22%
